In US11345957B2, “Methods of treating glioblastoma in a subject informed by exosomal RNA signatures” (Exosome Diagnostics, Inc., priority 2017, dated 2022):

System: patients diagnosed with glioblastoma mutliforme (GBM)
Experiment: Response of GBM patients to Dacomitinib treatment
Format: in vivo, human
From the text: Serum samples were collected from 14 patients diagnosed with glioblastoma mutliforme (GBM) before the administration of Dacomitinib (pre-treatment samples) and 1 month after the initiation of Dacomitinib treatment (post-treatment samples). Of the 14 patients, 7 were deemed to be “responders” to the drug and stayed on the drug for more than 6 months.

COc1cc2ncnc(Nc3ccc(F)c(Cl)c3)c2cc1NC(=O)/C=C/CN1CCCCC1 [Dacomitinib]
time responders stayed on the drug (7 responders of 14 GBM patients): more than 6 months | patients deemed to be "responders" to the drug (of the 14 patients diagnosed with GBM): 7
